Test results from patent US11787785B2 (NOVARTIS AG, priority 2021, dated 2023).

Molecular target: T1, WIZ protein (HiBit-WIZ fusion protein) (Homo sapiens, UniProt O95785+Q96SW2)
T1 construct: expressed in transfected cells
Experiment: Quantification of WIZ protein levels in HiBit tag fusion protein assay (WIZ HiBit assay in 293T cells)
Assay type: cell-based
Conditions: for Dmax at 25 µM / remaining activity at 25 µM: HEK-293T, 293T cells; for Dmax at 25 µM: 100 − Amax, read-out: % degradation of WIZ (100 − Amax); for remaining activity at 25 µM: DMSO-normalized, curve-fitted percentage of WIZ-HiBit remaining at 25 uM, read-out: WIZ Amax; for DC50: WIZ HiBit assay in 293T cells, 10-point, 5-fold dose response, highest concentration 25 μM, about 18 hours, read-out: WIZ AC50
Outline: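 HiBit-tagged WIZ (N-terminal tag, HSVTK promoter) stably expressed single-copy in 293T cells; 10-point 1:5 compound series, top 25 μM, ~18 h at 37 °C. Lytic HiBit/LgBit luminescence read; Amax = curve-fitted % WIZ-HiBit remaining at 25 μM, DMSO normalized to 100%.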

T1 sequence (O95785 whole entry, the tested form may be a part): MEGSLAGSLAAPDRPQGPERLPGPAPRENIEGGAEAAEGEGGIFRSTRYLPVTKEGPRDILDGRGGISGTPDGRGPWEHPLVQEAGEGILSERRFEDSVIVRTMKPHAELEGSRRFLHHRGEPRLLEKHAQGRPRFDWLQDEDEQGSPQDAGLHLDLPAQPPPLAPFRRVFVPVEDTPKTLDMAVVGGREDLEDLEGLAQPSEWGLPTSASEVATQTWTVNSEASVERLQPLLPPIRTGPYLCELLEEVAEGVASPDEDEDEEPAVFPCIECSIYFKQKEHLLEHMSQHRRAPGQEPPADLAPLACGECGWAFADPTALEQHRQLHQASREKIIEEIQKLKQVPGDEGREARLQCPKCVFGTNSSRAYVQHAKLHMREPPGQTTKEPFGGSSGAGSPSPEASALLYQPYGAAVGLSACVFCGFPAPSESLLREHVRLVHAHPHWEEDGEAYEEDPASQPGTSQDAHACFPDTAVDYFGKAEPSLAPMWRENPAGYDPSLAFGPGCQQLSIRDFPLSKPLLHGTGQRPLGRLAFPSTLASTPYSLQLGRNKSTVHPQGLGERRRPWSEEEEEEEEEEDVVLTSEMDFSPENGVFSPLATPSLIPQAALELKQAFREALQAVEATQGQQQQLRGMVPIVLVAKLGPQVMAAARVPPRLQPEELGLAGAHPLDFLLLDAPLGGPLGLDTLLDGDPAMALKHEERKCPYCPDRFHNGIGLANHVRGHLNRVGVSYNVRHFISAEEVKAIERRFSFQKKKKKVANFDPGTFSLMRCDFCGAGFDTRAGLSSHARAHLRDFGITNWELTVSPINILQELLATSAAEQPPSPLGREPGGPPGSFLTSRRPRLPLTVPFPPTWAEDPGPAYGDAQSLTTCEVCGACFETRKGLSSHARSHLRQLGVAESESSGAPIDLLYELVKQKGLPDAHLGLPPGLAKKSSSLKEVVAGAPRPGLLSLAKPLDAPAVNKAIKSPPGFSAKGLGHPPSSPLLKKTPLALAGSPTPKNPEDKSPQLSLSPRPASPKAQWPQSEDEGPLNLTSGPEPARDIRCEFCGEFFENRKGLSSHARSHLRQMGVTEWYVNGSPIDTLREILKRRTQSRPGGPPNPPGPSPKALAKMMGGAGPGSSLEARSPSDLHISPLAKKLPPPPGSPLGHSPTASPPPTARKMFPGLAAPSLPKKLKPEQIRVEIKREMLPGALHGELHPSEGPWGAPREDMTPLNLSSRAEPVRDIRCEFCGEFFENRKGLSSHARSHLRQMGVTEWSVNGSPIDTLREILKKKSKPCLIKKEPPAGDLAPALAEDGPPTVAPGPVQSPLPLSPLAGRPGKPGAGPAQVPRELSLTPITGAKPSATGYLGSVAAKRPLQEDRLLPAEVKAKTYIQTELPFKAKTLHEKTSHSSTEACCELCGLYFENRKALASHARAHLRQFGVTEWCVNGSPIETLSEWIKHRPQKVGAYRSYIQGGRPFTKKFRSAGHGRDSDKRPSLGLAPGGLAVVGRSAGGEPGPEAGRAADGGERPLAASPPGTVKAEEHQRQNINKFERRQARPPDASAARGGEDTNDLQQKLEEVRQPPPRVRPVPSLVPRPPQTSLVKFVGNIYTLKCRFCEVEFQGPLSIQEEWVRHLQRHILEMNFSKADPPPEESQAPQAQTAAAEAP
T1 sequence (Q96SW2 whole entry, the tested form may be a part): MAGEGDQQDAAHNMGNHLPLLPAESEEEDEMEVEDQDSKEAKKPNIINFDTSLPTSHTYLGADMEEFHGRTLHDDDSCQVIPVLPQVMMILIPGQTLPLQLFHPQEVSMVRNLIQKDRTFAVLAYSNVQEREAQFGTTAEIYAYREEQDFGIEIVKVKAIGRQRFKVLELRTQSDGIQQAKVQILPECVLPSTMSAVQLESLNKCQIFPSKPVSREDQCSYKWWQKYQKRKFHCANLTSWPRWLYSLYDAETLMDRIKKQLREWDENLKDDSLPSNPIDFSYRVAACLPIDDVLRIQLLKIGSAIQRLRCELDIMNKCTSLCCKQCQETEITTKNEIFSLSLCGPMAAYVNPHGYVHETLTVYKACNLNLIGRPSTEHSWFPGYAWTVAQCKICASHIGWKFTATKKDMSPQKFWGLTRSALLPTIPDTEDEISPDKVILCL
T1 sequence (Q16531 whole entry partner, the tested form may be a part): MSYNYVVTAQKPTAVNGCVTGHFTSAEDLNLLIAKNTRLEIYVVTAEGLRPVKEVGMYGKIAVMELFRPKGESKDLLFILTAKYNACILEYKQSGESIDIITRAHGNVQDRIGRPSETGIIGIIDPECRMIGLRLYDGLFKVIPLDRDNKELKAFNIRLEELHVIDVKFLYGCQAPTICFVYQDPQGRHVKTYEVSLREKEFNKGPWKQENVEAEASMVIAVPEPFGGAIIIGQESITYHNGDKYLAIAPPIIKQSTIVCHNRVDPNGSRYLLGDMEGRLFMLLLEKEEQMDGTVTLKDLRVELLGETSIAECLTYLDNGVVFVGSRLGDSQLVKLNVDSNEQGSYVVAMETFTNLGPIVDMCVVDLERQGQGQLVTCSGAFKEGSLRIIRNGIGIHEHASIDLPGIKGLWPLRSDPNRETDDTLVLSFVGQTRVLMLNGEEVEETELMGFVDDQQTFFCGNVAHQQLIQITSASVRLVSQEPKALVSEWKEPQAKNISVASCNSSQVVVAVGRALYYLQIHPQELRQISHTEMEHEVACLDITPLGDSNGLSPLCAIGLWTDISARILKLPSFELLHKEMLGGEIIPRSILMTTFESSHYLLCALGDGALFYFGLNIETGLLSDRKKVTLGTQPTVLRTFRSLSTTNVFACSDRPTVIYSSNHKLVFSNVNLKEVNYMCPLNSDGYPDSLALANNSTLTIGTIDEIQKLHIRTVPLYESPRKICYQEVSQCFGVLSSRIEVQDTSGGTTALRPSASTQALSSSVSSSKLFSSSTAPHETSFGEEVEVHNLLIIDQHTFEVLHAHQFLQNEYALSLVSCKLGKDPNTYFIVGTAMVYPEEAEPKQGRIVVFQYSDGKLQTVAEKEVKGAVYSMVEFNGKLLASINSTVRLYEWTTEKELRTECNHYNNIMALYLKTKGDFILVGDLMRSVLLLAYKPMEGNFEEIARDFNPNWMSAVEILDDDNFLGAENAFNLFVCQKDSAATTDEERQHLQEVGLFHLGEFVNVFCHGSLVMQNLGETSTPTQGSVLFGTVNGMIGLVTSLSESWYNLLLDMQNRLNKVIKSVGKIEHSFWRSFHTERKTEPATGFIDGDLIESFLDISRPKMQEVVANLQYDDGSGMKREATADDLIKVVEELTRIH

Structure (SMILES)	Dmax at 25 µM [%]	remaining activity at 25 µM [%]	DC50 [nM]
COc1ccccc1CN1CCC(Cc2ccn3ncc(N4CCC(=O)NC4=O)c3c2)CC1 [Example 122, 1-(5-((1-(2-methoxybenzyl)piperidin-4-yl)methyl)pyrazolo[1,5-a]pyridin-3-yl)dihydropyrimidine-2,4(1H,3H)-dione]	55	45	2580
O=C1CCN(c2cnn3ccc(CC4(F)CCN(CC5CCCCC5)CC4)cc23)C(=O)N1 [Example 123, 1-(5-((1-(cyclohexylmethyl)-4-fluoropiperidin-4-yl)methyl)pyrazolo[1,5-a]pyridin-3-yl)dihydropyrimidine-2,4(1H,3H)-dione]	68	32	95
O=C1CCN(c2cnn3ccc(CC4(F)CCN(CC5CCC5)CC4)cc23)C(=O)N1 [Example 125, 1-(5-((1-(cyclobutylmethyl)-4-fluoropiperidin-4-yl)methyl)pyrazolo[1,5-a]pyridin-3-yl)dihydropyrimidine-2,4(1H,3H)-dione]	55	45	596
O=C1CCN(c2cnn3ccc(CC4(F)CCN(Cc5ccccc5)CC4)cc23)C(=O)N1 [Example 126, 1-(5-((1-benzyl-4-fluoropiperidin-4-yl)methyl)pyrazolo[1,5-a]pyridin-3-yl)dihydropyrimidine-2,4(1H,3H)-dione]	35	65	290
Cc1c(CC2CCN(CC3CCCCC3)CC2)ccn2ncc(N3CCC(=O)NC3=O)c12 [Example 127, 1-(5-((1-(cyclohexylmethyl)piperidin-4-yl)methyl)-4-methylpyrazolo[1,5-a]pyridin-3-yl)dihydropyrimidine-2,4(1H,3H)-dione]	69	31	13
CC(C)(C1CCOCC1)N1CCC(Cc2ccn3ncc(N4CCC(=O)NC4=O)c3c2)CC1 [Example 136, 1-(5-((1-(2-(tetrahydro-2H-pyran-4-yl)propan-2-yl)piperidin-4-yl)methyl)pyrazolo[1,5-a]pyridin-3-yl)dihydropyrimidine-2,4(1H,3H)-dione]	86	14	33
CC(C)(CC1CCOCC1)N1CCC(Cc2ccn3ncc(N4CCC(=O)NC4=O)c3c2)CC1 [Example 137, 1-(5-((1-(2-methyl-1-(tetrahydro-2H-pyran-4-yl)propan-2-yl)piperidin-4-yl)methyl)pyrazolo[1,5-a]pyridin-3-yl)dihydropyrimidine-2,4(1H,3H)-dione]	77	23	121
CC(C)(C1CCC1)N1CCC(Cc2ccn3ncc(N4CCC(=O)NC4=O)c3c2)CC1 [Example 138, 1-(5-((1-(2-cyclobutylpropan-2-yl)piperidin-4-yl)methyl)pyrazolo[1,5-a]pyridin-3-yl)dihydropyrimidine-2,4(1H,3H)-dione]	80	20	100
CC(C)(C1CCC(F)(F)CC1)N1CCC(Cc2ccn3ncc(N4CCC(=O)NC4=O)c3c2)CC1 [Example 140, 1-(5-((1-(2-(4,4-difluorocyclohexyl)propan-2-yl)piperidin-4-yl)methyl)pyrazolo[1,5-a]pyridin-3-yl)dihydropyrimidine-2,4(1H,3H)-dione]	90	10	7
C[C@H]1C[C@H](Cc2ccn3ncc(N4CCC(=O)NC4=O)c3c2)CCN1CC1CCCCC1 [Example 143]	88	12	4
C[C@H]1C[C@H](Cc2ccn3ncc(N4CCC(=O)NC4=O)c3c2)CCN1CC1CCCC1 [Example 144]	87	13	8
C[C@H]1C[C@H](Cc2ccn3ncc(N4CCC(=O)NC4=O)c3c2)CCN1CC1CCCCCC1 [Example 147]	90	10	5
C[C@H]1C[C@H](Cc2ccn3ncc(N4CCC(=O)NC4=O)c3c2)CCN1CCC1CCOCC1 [Example 148]	86	14	63
C[C@H]1C[C@H](Cc2ccn3ncc(N4CCC(=O)NC4=O)c3c2)CCN1CC1CCC(C)(C)CC1 [Example 149]	90	10	0.4
C[C@H]1C[C@H](Cc2ccn3ncc(N4CCC(=O)NC4=O)c3c2)CCN1Cc1cccnc1 [Example 150]	90	10	0.3
O=C1CCN(c2cnn3ccc(CC4CCN(C[C@H]5CC[C@H](O)CC5)CC4)cc23)C(=O)N1 [Example 151, 1-(5-((1-(((1r,4r)-4-hydroxycyclohexyl)methyl)piperidin-4-yl)methyl)pyrazolo[1,5-a]pyridin-3-yl)dihydropyrimidine-2,4(1H,3H)-dione]	86	14	270
C[C@@H]1C[C@@H](Cc2ccn3ncc(N4CCC(=O)NC4=O)c3c2)CCN1CC1CCOCC1 [Example 154]	78	22	41
C[C@@H]1C[C@@H](Cc2ccn3ncc(N4CCC(=O)NC4=O)c3c2)CCN1CC1CCC(F)(F)CC1 [Example 155]	85	15	9
O=C1CCN(c2cnn3ccc(CN4CCN(CC5CCC(F)(F)CC5)CC4)cc23)C(=O)N1 [Example 157]	83	17	22
O=C1CCN(c2cnn3ccc(CN4CCN(CC5CCCCCC5)CC4)cc23)C(=O)N1 [Example 158]	82	18	25

More lines, now with the values ahead:

Dmax at 25 µM [%]	remaining activity at 25 µM [%]	DC50 [nM]	Structure (SMILES)
50	50	> 25000	O=C1CCN(c2cnn3ccc(CC4CCN(CC(CO)CO)CC4)cc23)C(=O)N1 [Example 121, 1-(5-((1-(3-hydroxy-2-(hydroxymethyl)propyl)piperidin-4-yl)methyl)pyrazolo[1,5-a]pyridin-3-yl)dihydropyrimidine-2,4(1H,3H)-dione]
58	42	502	CC(C)CN1CCC(F)(Cc2ccn3ncc(N4CCC(=O)NC4=O)c3c2)CC1 [Example 124, 1-(5-((4-fluoro-1-isobutylpiperidin-4-yl)methyl)pyrazolo[1,5-a]pyridin-3-yl)dihydropyrimidine-2,4(1H,3H)-dione]
29	71	830	O=C1CCN(c2cnn3ccc(CC4CCN(CC5CCCCC5)C4)cc23)C(=O)N1 (stereo not drawn) [Example 128]
35	65	800	O=C1CCN(c2cnn3ccc(CC4CCN(Cc5cccnc5)C4)cc23)C(=O)N1 (stereo not drawn) [Example 129]
36	64	1320	O=C1CCN(c2cnn3ccc(CC4CCN(CC5CCC5)C4)cc23)C(=O)N1 (stereo not drawn) [Example 130]
38	62	370	O=C1CCN(c2cnn3ccc(CC4CCN(Cc5cccc(F)c5)C4)cc23)C(=O)N1 (stereo not drawn) [Example 131]
41	59	720	CC(C)CN1CCC(Cc2ccn3ncc(N4CCC(=O)NC4=O)c3c2)C1 (stereo not drawn) [Example 132]
21	79	4800	O=C1CCN(c2cnn3ccc(CC4CNC4)cc23)C(=O)N1 [Example 133, 1-(5-(azetidin-3-ylmethyl)pyrazolo[1,5-a]pyridin-3-yl)dihydropyrimidine-2,4(1H,3H)-dione]
27	73	4300	CC(C)CN1CC(Cc2ccn3ncc(N4CCC(=O)NC4=O)c3c2)C1 [Example 134, 1-(5-((1-isobutylazetidin-3-yl)methyl)pyrazolo[1,5-a]pyridin-3-yl)dihydropyrimidine-2,4(1H,3H)-dione]
26	74	2100	O=C1CCN(c2cnn3ccc(CC4CN(CC5CCCCC5)C4)cc23)C(=O)N1 [Example 135, 1-(5-((1-(cyclohexylmethyl)azetidin-3-yl)methyl)pyrazolo[1,5-a]pyridin-3-yl)dihydropyrimidine-2,4(1H,3H)-dione]
83	17	3	CC(C)CC(C)(C)N1CCC(Cc2ccn3ncc(N4CCC(=O)NC4=O)c3c2)CC1 [Example 139, 1-(5-((1-(2,4-dimethylpentan-2-yl)piperidin-4-yl)methyl)pyrazolo[1,5-a]pyridin-3-yl)dihydropyrimidine-2,4(1H,3H)-dione]
82	18	51	C[C@H]1C[C@H](Cc2ccn3ncc(N4CCC(=O)NC4=O)c3c2)CCN1CC1CCC1 [Example 146]
81	19	910	C[C@H]1C[C@H](Cc2ccn3ncc(N4CCC(=O)NC4=O)c3c2)CCN1CC1CC(F)(F)C1 [Example 152, 1-(5-(((2S,4R)-1-((3,3-difluorocyclobutyl)methyl)-2-methylpiperidin-4-yl)methyl)pyrazolo[1,5-a]pyridin-3-yl)dihydropyrimidine-2,4(1H,3H)-dione]
86	14	14	CC(C)CN1CC[C@H](Cc2ccn3ncc(N4CCC(=O)NC4=O)c3c2)C[C@H]1C [Example 153]
